How the values were obtained:
gastric peristalsis = experiment: Testing of the Gastric Peristalsis (gastric pressure waves, narcotized rats); format: in vivo, rat; details: before vs after administration; for inhibition in vivo at 20 mg/kg: Rattus norvegicus, ip, read-out: Frequency Decrease in %; for Factor of the Increase in Amplitude: i.p., 20 mg/kg
Excerpt: To determine the functioning of the gastric peristalsis, rats weighing about 200 g are narcotized by means of ketamine hydrochloride and xylazine. A catheter is introduced into the Vena jugularis of the narcotized rats and a tracheal catheter into the trachea. A stomach probe is inserted into their stomach and tied thereto. The probe is connected via a three-way cock with a Statham pressure imparting device (P 23 DB). The stomach is sealed off by a ligature at the pylorus and at the cardia. The stomach is filled with 3 ml of an 0.9% aqueous sodium chloride solution. The pressure waves produced by the stomach are continuously registered by a suitable recording device such as by a Watanabe Multicorder (MC 641). In order to determine the effect of the compounds to be tested, they are dissolved in physiological sodium chloride solution or are suspended in Tylose MH 50 solution. Said solutions or suspensions are administered intraperitoneally to the rats in a dose of 20 mg/kg. The amplitudes and frequencies of the pressure wave-like movements of the stomach as they occur before and after administration of the compound to be tested, are compared.
This effect in combination with a pronounced decrease in the frequencies of varying magnitude results in an improved food passage through the stomach.

[1] = Determination of the Acute Toxicity (acute seven-day toxicity); details: mouse, in vivo, ip, fasting white NMRI mouse, single i.p. dose
Protocol: The acute seven-day toxicity is determined by intraperitoneal administration of a single dose of the respective compound to a fasting white NMRI mouse. The LD50 -values are calculated via electronic data processing by a probit analysis as described in the book "Grundbegriffe der Biometrie" (Basic Biometrical Definitions) by L. Cavalli-Sforza, page 153 et seq., published by Gustav Fischer Verlag, Stuttgart, 1964.

Structure (SMILES)	inhibition in vivo at 20 mg/kg (gastric peristalsis) [%]	LD50 at 168 h [1] [mg/kg]	Factor of the Increase in Amplitude (gastric peristalsis)
O[C@@H]1C[C@H](N2CCCC2)COc2ccccc21 (relative stereo) [K]	10	–	–
CN(C)CCCN[C@@H]1COc2ccccc2[C@H](O)C1 (relative stereo) [E]	32	664	–
CN[C@@H]1COc2ccccc2[C@H](O)C1 (relative stereo) [A]	–	342	–
CN(C)CCCNC1COc2ccccc2C(=O)C1 (racemic) [Compound 4, rac.-3-(γ-dimethylamino-propylamino)-3,4-dihydro-1-benzoxepin-5(2H)-one]	25	272	3.7
CCCCNC1COc2ccccc2C(=O)C1 (racemic) [Compound 7, rac.-3-(n-butylamino)-3,4-dihydro-1-benzoxepin-5(2H)-one]	28	–	6.6
CN(C)[C@@H]1COc2ccccc2[C@H](O)C1 (relative stereo) [O]	7	–	–
CN(C)CCCNC1COc2ccc(Cl)cc2C(=O)C1 (racemic) [Compound 6, rac.-3-(γ-dimethylamino-propylamino)-7-chloro-3,4-dihydro-1-benzoxepin-5(2H)-one]	29	296	3.4
CNC1COc2ccccc2C(=O)C1 (racemic) [Compound 1, rac.-3-methylamino-3,4-dihydro-1-benzoxepin-5(2H)-one]	8	137	1.6
O=C1CC(NCc2ccccc2)COc2ccccc21 (racemic) [Compound 3, rac.-3-benzylamino-3,4-dihydro-1-benzoxepin-5(2H)-one]	7	253	3.6
CC(C)N[C@@H]1COc2ccccc2[C@H](O)C1 (relative stereo) [C]	13	–	–
O[C@@H]1C[C@H](NCc2ccccc2)COc2ccccc21 (relative stereo) [D]	21	92	–
CCN(CC)[C@@H]1COc2ccccc2[C@H](O)C1 (relative stereo) [F]	–	183	–
CC(C)NC1COc2ccccc2C(=O)C1 (racemic) [Compound 2, rac.-3-isopropylamino-3,4-dihydro-1-benzoxepin-5(2H)-one]	16	183	2.6
CN(C)C1COc2ccccc2C(=O)C1 (racemic) [Compound 5, rac.-3-dimethylamino-3,4-dihydro-1-benzoxepin-5(2H)-one]	12	285	1.3

— US4279904A, “3-Amino-1-benzoxepine derivatives and their salts and pharmaceutical compositions thereof” (Kali-Chemie Pharma GmbH, priority 1979, dated 1981)
